Data taken from BindingDB's records for PubMed 35777269 (University of Maryland, 2022).

Biological target: Protein Wnt-3a (Human, UniProt P56704)
Test: Inhibition of recombinant human Wnt3a in HEK293 cells assessed as Wnt signalling by measuring reduction in relative luminescence units incubated for 24 hrs by luciferase reporter assay

Sequence of Protein Wnt-3a (P56704 whole entry): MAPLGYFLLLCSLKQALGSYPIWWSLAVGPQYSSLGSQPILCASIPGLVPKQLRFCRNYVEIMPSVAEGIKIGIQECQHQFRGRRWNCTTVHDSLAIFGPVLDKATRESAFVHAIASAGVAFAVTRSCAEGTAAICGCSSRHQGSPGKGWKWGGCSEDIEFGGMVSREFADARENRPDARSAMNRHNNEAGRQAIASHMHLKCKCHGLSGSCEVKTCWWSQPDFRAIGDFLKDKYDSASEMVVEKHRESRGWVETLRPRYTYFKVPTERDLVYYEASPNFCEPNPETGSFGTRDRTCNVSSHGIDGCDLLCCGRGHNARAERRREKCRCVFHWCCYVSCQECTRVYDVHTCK

IC50: 4.1 nM
SMILES: Cc1ccccc1-n1nnc(C(=O)Nc2ccc3ccccc3n2)c1C
